Assay results: article PMC11714206, “Massively Parallel Screening of Toll/Interleukin‐1 Receptor (TIR)‐Derived Peptides Reveals Multiple Toll‐Like Receptors (TLRs)‐Targeting Immunomodulatory Peptides” (Advanced Science, 2024)
Each block holds one sequence with its values, some of them ahead of it.

Molecular target: T1, MyD88^TIR (Homo sapiens, UniProt Q99836)
T1 construct: MyD88 (residues 148–296); 6xHis; made in house; host or cells: E. coli BL21 (DE3)
Test: T‐Surf phage library (P8 and P3) selection against MyD88^TIR, four rounds, NGS read counts
Assay type: binding
Details: for Population: P8_MyD88 pool: P8 T-Surf phage library, 4th round of selection against MyD88 TIR, share of NGS reads; for P3_MyD88 Rank (after) / P3_MyD88 Rank (before): P3 library; for P8_MyD88 Rank (after) / P8_MyD88 Rank (before): P8 library
Protocol: T‐Surf libraries were screened against the immobilized TIR domains of two major human TLR adaptor proteins, MAL^TIR and MyD88^TIR, allowing cross‐species selection of TIR‐binding motifs with 190 946 TIR‐derived peptides in a single binding assay (Scheme 1). Enriched phage pools from the fourth round of selection were analyzed using NGS after barcoding the peptide‐coding regions of the phage pools.
Phage display screening was performed by coating two wells of a 96‐well plate (Maxisorp, Thermo Fisher Scientific) with 100 µL of 5 µg mL^−1 TIR domains overnight; then, the coated wells were blocked with 200 µL of blocking buffer (0.2% BSA in PBS) and set aside for 1 h at 4 °C with gentle shaking. Next, 100 µL of the phage library was added to the wells and incubated for 1 h at room temperature (RT; 20 – 22 °C) with gentle shaking. The plate was washed four times with PBS containing 0.5% Tween‐20; the bound phages were eluted by adding 100 µL of 100 mM HCl to each well. The elute was neutralized with 10 µL of 1.0 M Tris‐HCl (pH 11.0). E. coli TG1 cells were grown to the log phase (A600 = ≈0.6), and 1 mL of the culture was incubated with 100 µL of the eluted phages for 30 min at 37 °C, with shaking at 200 rpm. Next, 1 µL of M13KO7 helper phages was added, followed by incubation for 45 min at 37 °C, with shaking. Subsequently, the cells were transferred to 25 mL of 2× yeast extract tryptone/carbenicillin/kanamycin medium and incubated overnight at 37 °C with shaking at 200 rpm. The amplified phages were precipitated with 20% PEG‐8000/2.5 M NaCl to be used for the next round of selection.
The naïve T‐Surf libraries in P8 and P3 and the enriched phage pools after four rounds were barcoded for NGS as previously described.^[ [59] ^] Briefly, 5 µL of the phage pool was used as a template for 20 cycles of a 50 µL PCR reaction using […] each of forward and reverse barcoded primers and PrimeSTAR Max DNA Polymerase. The PCR products were purified using Expin Gel SV (GeneAll). The NGS samples were quantified using qPCR, following the qPCR Quantification Protocol Guide (KAPA Library Quantification kits for Illumina Sequencing Platform), and qualified using the TapeStation High Sensitivity D1000 ScreenTape (Agilent Technologies). The indexed libraries were further sequenced by Macrogen (Seoul, Republic of Korea) using the NovaSeq platform (Illumina) with 100 bp paired‐end reads. The reads were demultiplexed by barcodes and filtered for an average Phred quality score of at least 30, followed by trimming the flanking consensus sequences using Cutadapt (version 2.3). Peptide sequence populations were analyzed according to the read counts.

[1] = P8_MyD88: rank by count after grouping
[2] = P8_MyD88: rank by count before grouping
[3] = selection against MyD88, rank by count after grouping
[4] = selection against MyD88, rank by count before grouping
[5] = P3_MyD88: rank by count after grouping
[6] = P3_MyD88: rank by count before grouping
[7] = 4R selection against MyD88, rank after grouping
[8] = 4R selection against MyD88, rank before grouping
[9] = P8_MyD88: rank by NGS read count after grouping
[10] = P8_MyD88: rank by NGS read count before grouping
[11] = selection against MyD88, rank after grouping
[12] = selection against MyD88, rank before grouping
[13] = selection against MyD88 TIR, rank by count after grouping
[14] = selection against MyD88 TIR, rank by count before grouping

T1 sequence (Q99836 148-296): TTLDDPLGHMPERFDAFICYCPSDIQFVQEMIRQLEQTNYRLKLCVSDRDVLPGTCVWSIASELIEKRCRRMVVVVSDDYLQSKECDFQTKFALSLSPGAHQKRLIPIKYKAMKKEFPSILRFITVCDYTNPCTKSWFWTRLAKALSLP

Rank (after) [1]: 153
Rank (before) [2]: 167
Population: 0.00886%
Sequence: NFVEYFVYQMMPDILE

P3_MyD88 Rank (after) [3]: 702
P3_MyD88 Rank (before) [4]: 3461
Sequence: NHHLDPPRGKANKPGILG

Rank (after) [1]: 175
Rank (before) [2]: 207
Sequence: YASSSWALDELLQILHARELF

Rank (after) [5]: 143
Rank (before) [6]: 2283
Sequence: LVAHEISNNMKIFATI

P8_MyD88 Rank (after) [7]: 622
P8_MyD88 Rank (before) [8]: 2352
Sequence: DFLNWFYERLVSLFL

Rank (after) [9]: 997
Rank (before) [10]: 1799
Sequence: YASYDDNDYYWVTHVLLRH

Rank (after) [5]: 124
Rank (before) [6]: 1793
Sequence: GFLYHAFAREGIKIFM

P8_MyD88 Rank (after) [11]: 495
P8_MyD88 Rank (before) [12]: 3035
Sequence: DPHDPQWFYERLVRLI

P3_MyD88 Rank (after) [13]: 279
P3_MyD88 Rank (before) [14]: 3225
Sequence: SSFREALWRLLGLSEK

P3_MyD88 Rank (after) [7]: 651
P3_MyD88 Rank (before) [8]: 3662
Sequence: KELVHVWSSKANSRVG

Rank (after) [5]: 428
Rank (before) [6]: 1661
Sequence: YTALTNSGFLSFRDTD

P8_MyD88 Rank (after) [11]: 499
P8_MyD88 Rank (before) [12]: 2976
Sequence: DPQDTDWFYERLVSMF

Rank (after) [5]: 175
Rank (before) [6]: 1238
Sequence: NELCMCGAAKRIAWW

Rank (after) [5]: 146
Rank (before) [6]: 3095
Sequence: SRDYASSPWALDELVL

Rank (after) [9]: 972
Rank (before) [10]: 2856
Sequence: DPQDLEWNFERPVSLF

P3_MyD88 Rank (after) [13]: 235
P3_MyD88 Rank (before) [14]: 3242
Sequence: SSFRERLCRLLELSKK

Rank (after) [5]: 421
Rank (before) [6]: 2179
Sequence: EWMREQLRPPLKERLP

P3_MyD88 Rank (after) [3]: 693
P3_MyD88 Rank (before) [4]: 3400
Sequence: NELVQVWSSKANSLVR

P8_MyD88 Rank (after) [3]: 677
P8_MyD88 Rank (before) [4]: 2648
Sequence: DPQVLEWLYKRLFSQM

Rank (after) [1]: 169
Rank (before) [2]: 1082
Sequence: DPQDLDCFYERLVSLL

P8_MyD88 Rank (after) [13]: 225
P8_MyD88 Rank (before) [14]: 426
Sequence: WALDLDWFYERLVSLF

Population: 0.0112%
Sequence: DPQDLEWFYERLVSLF

P3_MyD88 Rank (after) [13]: 249
P3_MyD88 Rank (before) [14]: 2561
Sequence: RYIMPHPQELIQQKQP

P8_MyD88 Rank (after) [7]: 597
P8_MyD88 Rank (before) [8]: 3635
Sequence: IDDDHLTYLVRLLLS

P3_MyD88 Rank (after) [11]: 536
P3_MyD88 Rank (before) [12]: 1378
Sequence: FLSYRALEKRFGPLVQ

P3_MyD88 Rank (after) [11]: 499
P3_MyD88 Rank (before) [12]: 2880
Sequence: QLIQQWIELHLHQLHL

P3_MyD88 Rank (after) [11]: 503
P3_MyD88 Rank (before) [12]: 2131
Sequence: EWIREQFRRALKERLP

P3_MyD88 Rank (after) [11]: 518
P3_MyD88 Rank (before) [12]: 2289
Sequence: LVAHEISKKLKNFPTI

P8_MyD88 Rank (after) [13]: 278
P8_MyD88 Rank (before) [14]: 3410
Sequence: PRDLEWLYERLVSLIL

Rank (after) [5]: 435
Rank (before) [6]: 2053
Sequence: DHHLDLSRGKSIKPDILG

P8_MyD88 Rank (after) [11]: 548
P8_MyD88 Rank (before) [12]: 3225
Sequence: LGYRLMFWDYFVGIVD

P8_MyD88 Rank (after) [13]: 285
P8_MyD88 Rank (before) [14]: 543
Sequence: YSFLSHLAAAFELHGI

P8_MyD88 Rank (after) [11]: 518
P8_MyD88 Rank (before) [12]: 2106
Sequence: YQLVFVHFWMFDGRTA

Rank (after) [5]: 475
Rank (before) [6]: 2066
Sequence: DQHLDLPRGKAIKPELLG

P8_MyD88 Rank (after) [3]: 758
P8_MyD88 Rank (before) [4]: 1570
Sequence: WDFSGNIEQFWDRLYY

Rank (after) [1]: 399
Rank (before) [2]: 1289
Sequence: SSAWALNELVQIMKAW

P8_MyD88 Rank (after) [3]: 727
P8_MyD88 Rank (before) [4]: 1465
Sequence: WALDELLQILRARDLF

P8_MyD88 Rank (after) [13]: 206
P8_MyD88 Rank (before) [14]: 2595
Sequence: DLQDLDWFYERLVSLL

P3_MyD88 Rank (after) [7]: 664
P3_MyD88 Rank (before) [8]: 2090
Sequence: DTKLKEGDCVPPELLR

Rank (after) [1]: 407
Rank (before) [2]: 1723
Sequence: YAASPWWFDELVRIVC

P3_MyD88 Rank (after) [7]: 637
P3_MyD88 Rank (before) [8]: 2133
Sequence: EWIREQLCLALKERLP

P8_MyD88 Rank (after) [13]: 211
P8_MyD88 Rank (before) [14]: 326
Sequence: LKVESWRQALEKAGKL

Rank (after) [1]: 104
Rank (before) [2]: 110
Population: 0.02%
Sequence: LTDVANILGYHWIDWE

P3_MyD88 Rank (after) [11]: 567
P3_MyD88 Rank (before) [12]: 3671
Sequence: KERPFGAQRAEKWRAALT

P3_MyD88 Rank (after) [11]: 577
P3_MyD88 Rank (before) [12]: 3470
Sequence: NQWRFGSKVDAWKAAL

Rank (after) [1]: 103
Rank (before) [2]: 107
Population: 0.0216%
Sequence: FIDFLFDAFETKGIFV

P8_MyD88 Rank (after) [11]: 494
P8_MyD88 Rank (before) [12]: 2920
Sequence: DPQDLQWFYERLVSLMASGI

P8_MyD88 Rank (after) [13]: 241
P8_MyD88 Rank (before) [14]: 2986
Sequence: DPQELDWYYERLVSLF

Rank (after) [5]: 422
Rank (before) [6]: 1485
Sequence: YAFTGHFQRYLVQRGV

Rank (after) [1]: 140
Rank (before) [2]: 152
Population: 0.01%
Sequence: TSHFLDSYWAMFELNM

P8_MyD88 Rank (after) [11]: 500
P8_MyD88 Rank (before) [12]: 2997
Sequence: DPQDLAWFYASQSSQM

P3_MyD88 Rank (after) [3]: 694
P3_MyD88 Rank (before) [4]: 2285
Sequence: LVAHEISKMMKVFATI

Population: 0.02%
Sequence: ELDFSHFWLFDGHAGGEA

P3_MyD88 Rank (after) [11]: 484
P3_MyD88 Rank (before) [12]: 1942
Sequence: AGDKGTDKIQTPLKNA

Rank (after) [5]: 412
Rank (before) [6]: 3051
Sequence: SELRVVDKETDKIQTPLKNA

Rank (after) [5]: 135
Rank (before) [6]: 3273
Sequence: SSLREGLWRLQELSKK

P8_MyD88 Rank (after) [11]: 537
P8_MyD88 Rank (before) [12]: 2385
Sequence: DLVCDYLLPNLEGAAG

P3_MyD88 Rank (after) [7]: 660
P3_MyD88 Rank (before) [8]: 3149
Sequence: SSFREGVWRLPEMSTK

P3_MyD88 Rank (after) [3]: 701
P3_MyD88 Rank (before) [4]: 3513
Sequence: NQWRNALTAAANLGGL

Rank (after) [1]: 444
Rank (before) [2]: 1582
Sequence: WDFASDMEQVWDRLYY

Rank (after) [1]: 164
Rank (before) [2]: 184
Population: 0.00732%
Sequence: NYADSSWALDELLAIM

Rank (after) [9]: 880
Rank (before) [10]: 2458
Sequence: DWVWEYLLPNVERPEG

P8_MyD88 Rank (after) [11]: 496
P8_MyD88 Rank (before) [12]: 3852
Sequence: NYASSTFALNELHYILRFI

Rank (after) [5]: 112
Rank (before) [6]: 995
Sequence: EWIREQLRPALKERL

Rank (after) [1]: 398
Rank (before) [2]: 1024
Sequence: AEFWERLRMTVLETME

P3_MyD88 Rank (after) [11]: 490
P3_MyD88 Rank (before) [12]: 3584
Sequence: KWLWDKLIYARSRNPH

Rank (after) [9]: 981
Rank (before) [10]: 1460
Sequence: WALDELLQILHPRELV

P8_MyD88 Rank (after) [3]: 704
P8_MyD88 Rank (before) [4]: 2449
Sequence: DWVWDYLLPIWKAQR

Rank (after) [1]: 402
Rank (before) [2]: 1870
Sequence: YASSSWYLDELLQIA

Rank (after) [9]: 871
Rank (before) [10]: 3403
Sequence: PQVVACFFQRLESMIL

P8_MyD88 Rank (after) [13]: 201
P8_MyD88 Rank (before) [14]: 293
Sequence: SIATLLYDQLSWLDIH

P3_MyD88 Rank (after) [11]: 570
P3_MyD88 Rank (before) [12]: 3040
Sequence: SELRVVDDGSVSPPNL

P3_MyD88 Rank (after) [3]: 708
P3_MyD88 Rank (before) [4]: 2552
Sequence: RFWESQRYMKPNVSHT

Rank (after) [1]: 142
Rank (before) [2]: 154
Population: 0.01%
Sequence: WALRELEAILQSFQLS

P8_MyD88 Rank (after) [7]: 664
P8_MyD88 Rank (before) [8]: 2134
Sequence: YNLAQYLHVSLMARGI

P3_MyD88 Rank (after) [3]: 710
P3_MyD88 Rank (before) [4]: 1743
Sequence: YNFISQLYDALQRNRI

Rank (after) [5]: 414
Rank (before) [6]: 2694
Sequence: RSFREGPWRLLELSKK

P8_MyD88 Rank (after) [11]: 497
P8_MyD88 Rank (before) [12]: 1755
Sequence: YAASPRLFGEPVKIVG

Rank (after) [5]: 468
Rank (before) [6]: 1938
Sequence: AVDKKTDKIQTPRKNA

Rank (after) [5]: 452
Rank (before) [6]: 3442
Sequence: NELVHEWSSKANSVVG
